The structures appear in SMILES notation. Structures can show the parent of a compound that is named as a salt.

Experimental findings from US7989451B2, “Tricyclic 1,2,4-triazine oxides and compositions for therapeutic use in cancer treatments” (Auckland Uniservices Limited, priority 2005, dated 2011) are described below.

The term melting point denotes the temperature of the solid-liquid transition. Turning to `Nc1nc2cc3c(cc2[n+]([O-])n1)CCCC3` [Compound 175, 6,7,8,9-Tetrahydronaphtho[2,3-e][1,2,4]triazin-3-amine 1-Oxide], the melting point was 270 to 274 °C.
Compound `COC1CN(CCCNc2nc3cc4c(cc3[n+]([O-])n2)CCC4)C1` [Compound 54, N-[3-(3-Methoxy-1-azetidinyl)propyl]-7,8-dihydro-6H-indeno[5,6-e][1,2,4]triazin-3-amine 1-Oxide] registered a melting point of 101 to 102 °C.
Consider `CCN1Cc2cc3nc(N)n[n+]([O-])c3cc2C1` [Compound 249, 7-Ethyl-7,8-dihydro-6H-[1,2,4]triazino[5,6-f]isoindol-3-amine 1-Oxide], for which the melting point came out at 218 °C.
For the compound `Nc1nc2ccc3c(c2[n+]([O-])n1)CCCO3` [Compound 234, 9,10-Dihydro-8H-chromeno[6,5-e][1,2,4]triazin-3-amine 1-Oxide], the melting point is 275 to 279 °C (dec.).
`Nc1nc2cc3c(cc2[n+]([O-])n1)CCO3` [Compound 204, 7,8-Dihydrofuro[2,3-g][1,2,4]benzotriazin-3-amine 1-Oxide] gave a melting point of 293 to 296 °C.
Compound `[O-][n+]1nc(NCCCN2CCOCC2)nc2cc3c(cc21)CCO3` [Compound 211, N-[3-(4-Morpholinyl)propyl]-7,8-dihydrofuro[2,3-g][1,2,4]benzotriazin-3-amine 1-Oxide] yielded a melting point of 152 to 154 °C.
On to `CN(C)CCNc1nc2cc3c(cc2[n+]([O-])n1)OCO3` [Compound 223, N^1,N^1-Dimethyl-N^2-(1-oxido[1,3]dioxolo[4,5-g][1,2,4]benzotriazin-3-yl)-1,2-ethanediamine], for which the melting point was 192 to 194 °C.
`CN1CCc2ccc3nc(Cl)n[n+]([O-])c3c2C1` [Compound 263, 3-Chloro-9-methyl-7,8,9,10-tetrahydro[1,2,4]triazino[5,6-h]isoquinoline 1 Oxide] had a melting point of 200 to 205 °C.
In the case of `CN(C)CCNc1nc2cc3c(cc2[n+]([O-])n1)OCC3` [Compound 197, N^1,N^1-Dimethyl-N^2-(1-oxido-6,7-dihydrofuro[3,2-g][1,2,4]benzotriazin-3-yl)-1,2-ethanediamine] it was 153 to 157 °C; in that of `[O-][n+]1nc(NCCCN2CCOCC2)[n+]([O-])c2cc3c(cc21)CCCC3` (as salt: hydrochloride) [Compound 180, N-[3-(4-Morpholinyl)propyl]-6,7,8,9-tetrahydronaphtho[2,3-e][1,2,4]triazin-3-amine 1,4-Dioxide], 182 to 185 °C.
The compound `CCN1Cc2cc3c(cc2C1)[n+]([O-])c(N)n[n+]3[O-]` (as salt: hydrochloride) [Compound 250, 7-Ethyl-7,8-dihydro-6H-[1,2,4]triazino[5,6-f]isoindol-3-amine 1,4-Dioxide] came in with a melting point of 230 °C.
Compound `Nc1nc2cc3c(cc2[n+]([O-])n1)CC(CO)C3` (stereo not shown) [Compound 124, (3-Amino-1-oxido-7,8-dihydro-6H-indeno[5,6-e][1,2,4]triazin-7-yl)methanol] returned a melting point of 255 to 257 °C.
Turning to `COCCCN(C)CCNc1nc2cc3c(cc2[n+]([O-])n1)CCC3` [Compound 32, N^1-(3-Methoxypropyl)-N^1-methyl-N^2-(1-oxido-7,8-dihydro-6H-indeno[5,6-e][1,2,4]triazin-3-yl)-1,2-ethanediamine], the melting point was 41 to 42 °C.
Turning to `[O-][n+]1ncnc2cc3c(cc21)CCC3` [Compound 64, 7,8-Dihydro-6H-indeno[5,6-e][1,2,4]triazine 1-Oxide], the melting point was in the range of 130 to 131 °C.
`N#CC1CCN(CCCNc2nc3cc4c(cc3[n+]([O-])n2)CCC4)C1` (stereo not shown) [Compound 56, 1-{3-[(1-Oxido-7,8-dihydro-6H-indeno[5,6-e][1,2,4]triazin-3-yl)amino]propyl}-3-pyrrolidinecarbonitrile] returned a melting point of 111 to 112 °C.
Compound `CCNc1nc2cc3c(cc2[n+]([O-])n1)CC(N(C)C)C3` (stereo not shown) [Compound 113, N^3-Ethyl-N^7,N^7-dimethyl-7,8-dihydro-6H-indeno[5,6-e][1,2,4]triazine-3,7-diamine 1-Oxide] gave a melting point of 187 to 190 °C.
As for `CCc1nc2cc3c(cc2[n+]([O-])n1)CCN(C)C3` [Compound 260, 3-Ethyl-7-methyl-6,7,8,9-tetrahydro[1,2,4]triazino[6,5-g]isoquinoline 1-Oxide], the melting point is 129 to 131 °C.
As to `[O-][n+]1nc(CCCO)nc2cc3c(cc21)CCC3` [Compound 70, 3-(1-Oxido-7,8-dihydro-6H-indeno[5,6-e][1,2,4]triazin-3-yl)-1-propanol], the melting point fell in the range of 131 to 133 °C.
`[O-][n+]1nc(NCCN2CCOCC2)nc2cc3c(cc21)CCC3` [Compound 44, N-[2-(4-Morpholinyl)ethyl]-7,8-dihydro-6H-indeno[5,6-e][1,2,4]triazin-3-amine 1-Oxide] had a melting point of 178 to 179 °C.
In turn, `[O-][n+]1nc(NCCN2CCCOCC2)nc2cc3c(cc21)CCC3` [Compound 48, N-[2-(1,4-Oxazepan-4-yl)ethyl]-7,8-dihydro-6H-indeno[5,6-e][1,2,4]triazin-3-amine 1-Oxide] registered a melting point of 119 to 120 °C.
In the case of `CN(C)CCNc1nc2cc3c(cc2[n+]([O-])n1)CCCC3` [Compound 177, N^1-(1-Oxido-6,7,8,9-tetrahydronaphtho[2,3-e][1,2,4]triazin-3-yl)-N^2,N^2-dimethyl-1,2-ethanediamine] it was 149 to 151 °C; in that of `CCc1nc2cc3c(cc2[n+]([O-])n1)CC(CO[Si](C)(C)C(C)(C)C)C3` (stereo not shown), 63 to 65 °C.
In the case of `CN(C)CCNc1nc2cc3c(cc2[n+]([O-])n1)CCO3` [Compound 207, N^1,N^1-Dimethyl-N^2-(1-oxido-7,8-dihydrofuro[2,3-g][1,2,4]benzotriazin-3-yl)-1,2-ethanediamine] it was 163 to 165 °C; in that of `[O-][n+]1nc(CCCN2CCOCC2)nc2cc3c(cc21)CC(CO)C3` (stereo not shown) (as salt: hydrochloride) [Compound 140, {3-[3-(4-Morpholinyl)propyl]-1-oxido-7,8-dihydro-6H-indeno[5,6-e][1,2,4]triazin-7-yl}methanol], 210 to 212 °C; in that of `[O-][n+]1nc(I)nc2cc3c(cc21)CC(CCOC1CCCCO1)C3` (stereo not shown) [Compound 159, 3-Iodo-7-(2-(tetrahydro-2H-pyran-2-yloxy)ethyl)-7,8-dihydro-6H-indeno[5,6-e][1,2,4]triazine 1-Oxide], 80 to 82 °C.
In turn, `[O-][n+]1nc(NCCN2CCOCC2)[n+]([O-])c2cc3c(cc21)CCC3` (as salt: hydrochloride) [Compound 45, N-[2-(4-Morpholinyl)ethyl]-7,8-dihydro-6H-indeno[5,6-e][1,2,4]triazin-3-amine 1,4-Dioxide] showed a melting point of 184 to 185 °C.
The compound `[O-][n+]1nc(I)nc2cc3c(cc21)CCO3` [Compound 213, 3-Iodo-7,8-dihydrobenzofuro[6,5-e][1,2,4]triazine 1-Oxide] yielded a melting point of 192 to 194 °C.
On to `CC(C)(C)[Si](C)(C)OCC1Cc2cc3nc(N)n[n+]([O-])c3cc2C1` (stereo not shown), for which the melting point lay in the range of 169 to 171 °C.
`CC1Cc2cc3nc(CCCN4CCOCC4)n[n+]([O-])c3cc2C1` (stereo not shown) [Compound 102, 7-Methyl-3-[3-(4-morpholinyl)propyl]-7,8-dihydro-6H-indeno[5,6-e][1,2,4]triazine 1-Oxide] gave a melting point of 70 to 71 °C.
Regarding `Nc1nc2cc3c(cc2[n+]([O-])n1)CCCCC3` [Compound 186, 7,8,9,10-Tetrahydro-6H-cyclohepta[g][1,2,4]benzotriazin-3-amine 1-Oxide], the melting point fell in the range of 261 to 265 °C.
`CN1CCc2cc3c(cc2C1)nc(N)n[n+]3[O-]` [Compound 256, 7-Methyl-6,7,8,9-tetrahydro[1,2,4]triazino[6,5-g]isoquinolin-3-amine 1-Oxide] yielded a melting point of 170 to 175 °C.
As to `CC1CCCC(C)N1CCNc1nc2cc3c(cc2[n+]([O-])n1)CCC3` (stereo not shown) [Compound 38, N-[2-(2,6-Dimethyl-1-piperidinyl)ethyl]-7,8-dihydro-6H-indeno[5,6-e][1,2,4]triazin-3-amine 1-Oxide], the melting point was in the range of 173 to 175 °C.
Compound `COC1CN(CCNc2nc3cc4c(cc3[n+]([O-])n2)CCC4)C1` [Compound 34, N-[2-(3-Methoxy-1-azetidinyl)ethyl]-7,8-dihydro-6H-indeno[5,6-e][1,2,4]triazin-3-amine 1-Oxide] returned a melting point of 139 to 141 °C.
Turning to `[O-][n+]1nc(CCCN2CCOCC2)nc2cc3c(cc21)CCO3` [Compound 215, 3-[3-(4-Morpholinyl)propyl]-7,8-dihydrofuro[2,3-g][1,2,4]benzotriazine 1-Oxide], the melting point lay in the range of 96 to 99 °C.
In the case of `[O-][n+]1nc(Cl)nc2cc3c(cc21)CCO3` [Compound 206, 3-Chloro-7,8-dihydrofuro[2,3-g][1,2,4]benzotriazine 1-Oxide], the melting point fell in the range of 203 to 205 °C.
Turning to `Nc1nc2ccc3c(c2[n+]([O-])n1)CCCC3` [Compound 170, 7,8,9,10-Tetrahydronaphtho[2,1-e][1,2,4]triazin-3-amine 1-Oxide], the melting point is 271 °C (dec.).
In the case of `COCCN(C)CCNc1nc2cc3c(cc2[n+]([O-])n1)CCC3` [Compound 30, N^1-(1-Oxido-7,8-dihydro-6H-indeno[5,6-e][1,2,4]triazin-3-yl)-N^2-(2-methoxyethyl)-N^2-methyl-1,2-ethanediamine], the melting point was 107 to 110 °C.
Turning to `CCc1n[n+]([O-])c2cc3c(cc2[n+]1[O-])CC(CCN1CCOCC1)C3` (stereo not shown) (as salt: hydrochloride) [Compound 164, 3-Ethyl-7-[2-(4-morpholinyl)ethyl]-7,8-dihydro-6H-indeno[5,6-e][1,2,4]triazine 1,4-Dioxide], the melting point lay within 131 to 133 °C.
Take `[O-][n+]1nc(NCCCN2CCOCC2)nc2cc3c(cc21)CCCC3` [Compound 179, N-[3-(4-Morpholinyl)propyl]-6,7,8,9-tetrahydronaphtho[2,3-e][1,2,4]triazin-3-amine 1-Oxide]: the melting point was in the range of 115 to 116 °C.
`CCc1nc2cc3c(cc2[n+]([O-])n1)CC(CCO)C3` (stereo not shown) [Compound 161, 2-(3-Ethyl-1-oxido-7,8-dihydro-6H-indeno[5,6-e][1,2,4]triazin-7-yl)ethanol] had a melting point of 96 to 99 °C.
